Data on four compounds can be found in patent US8058309B2, “Protein kinase modulators and therapeutic uses thereof” (Novotyr Therapeutics Ltd., priority 2006, dated 2011).

Where two headings read alike, the source gives them in different places.

One experiment has as its system PC-10. The experiment in a line: Proliferation assay PC-10. The format is cell-based. The following applies: Homo sapiens, PC10, Lung, 72 hours. The protocol: (§1) Various cancer cell lines (listed in table 1) were plated at a density of 1000-5000 cells/well in 96-well plates in 90111 growth medium containing 10% FCS, 100 units/ml penicillin and 100 μg/ml streptomycin. Inhibitors were added a day later in 10 μl of 1% DMSO in DDW to obtain final concentrations of 0, 0.1, 0.3, 1, 3, and 10 μM. The final concentration of DMSO (0.1% DMSO) was kept constant in all samples. Medium with inhibitors was refreshed a day and two days later. Following exposure of the cells to the inhibitors for 72 hours at 37° C., the cells were fixed in 0.5% gluteraldehyde in medium for 10 min, washed three times with DDW, once with 0.1M sodium borate buffer pH 8.5 and stained with 1% methylene blue dissolved in 0.1M borate buffer solution for 60 min. Excess dye was washed out and cell-bound dye was eluted with 200 μl/well of 0.1 M HCl. The optical density value was read at 620 nm in ELISA plate reader. The data was analyzed in Microsoft Excel, using the vehicle control as 100% proliferation. The assays were performed in triplicates. The values in table 1 represent IC50 values derived from the dose-dependent growth curves obtained.
(§2) Compounds 6, 7, 8, and 9 were tested for their inhibitory potential in cell proliferation assay. In this assay cells were exposed to increasing concentrations of the molecules (at 0.1% DMSO in all wells) a day after seeding. Medium and inhibitors were refreshed every day, and following three days of treatment, cells were fixed and stained with methylene-Blue. IC50 values were determined from the curves of the optical density against compound concentration. The assay was performed in triplicates.

The next experiment deals with 1376. In words: Proliferation assay 1376. The format is cell-based. The following applies: Bladder, 72 hours. The procedure: as §1, §2
The test system of the next experiment is U87MG. The experiment in a line: Proliferation assay U87MG. The format is cell-based. Conditions: Homo sapiens, U-87 MG, Glioma, 72 hours. The procedure: as §1, §2
Another experiment deals with NCl-H1975. The experiment in a line: Proliferation assay NCl-H1975. The format is cell-based. Conditions: Lung, 72 hours. The procedure:
as §1, §2

Another experiment has as its system SKOV-3. In words: Proliferation assay SKOV-3. The format is cell-based. The following applies: Homo sapiens, SK-OV-3, Ovarian, 72 hours. The procedure: as §1, §2
For a further experiment, the target named is T1, IGF1R (Homo sapiens, UniProt P08069).
T1 construct: made in house
T1 sequence (P08069 31-1367, species assumed): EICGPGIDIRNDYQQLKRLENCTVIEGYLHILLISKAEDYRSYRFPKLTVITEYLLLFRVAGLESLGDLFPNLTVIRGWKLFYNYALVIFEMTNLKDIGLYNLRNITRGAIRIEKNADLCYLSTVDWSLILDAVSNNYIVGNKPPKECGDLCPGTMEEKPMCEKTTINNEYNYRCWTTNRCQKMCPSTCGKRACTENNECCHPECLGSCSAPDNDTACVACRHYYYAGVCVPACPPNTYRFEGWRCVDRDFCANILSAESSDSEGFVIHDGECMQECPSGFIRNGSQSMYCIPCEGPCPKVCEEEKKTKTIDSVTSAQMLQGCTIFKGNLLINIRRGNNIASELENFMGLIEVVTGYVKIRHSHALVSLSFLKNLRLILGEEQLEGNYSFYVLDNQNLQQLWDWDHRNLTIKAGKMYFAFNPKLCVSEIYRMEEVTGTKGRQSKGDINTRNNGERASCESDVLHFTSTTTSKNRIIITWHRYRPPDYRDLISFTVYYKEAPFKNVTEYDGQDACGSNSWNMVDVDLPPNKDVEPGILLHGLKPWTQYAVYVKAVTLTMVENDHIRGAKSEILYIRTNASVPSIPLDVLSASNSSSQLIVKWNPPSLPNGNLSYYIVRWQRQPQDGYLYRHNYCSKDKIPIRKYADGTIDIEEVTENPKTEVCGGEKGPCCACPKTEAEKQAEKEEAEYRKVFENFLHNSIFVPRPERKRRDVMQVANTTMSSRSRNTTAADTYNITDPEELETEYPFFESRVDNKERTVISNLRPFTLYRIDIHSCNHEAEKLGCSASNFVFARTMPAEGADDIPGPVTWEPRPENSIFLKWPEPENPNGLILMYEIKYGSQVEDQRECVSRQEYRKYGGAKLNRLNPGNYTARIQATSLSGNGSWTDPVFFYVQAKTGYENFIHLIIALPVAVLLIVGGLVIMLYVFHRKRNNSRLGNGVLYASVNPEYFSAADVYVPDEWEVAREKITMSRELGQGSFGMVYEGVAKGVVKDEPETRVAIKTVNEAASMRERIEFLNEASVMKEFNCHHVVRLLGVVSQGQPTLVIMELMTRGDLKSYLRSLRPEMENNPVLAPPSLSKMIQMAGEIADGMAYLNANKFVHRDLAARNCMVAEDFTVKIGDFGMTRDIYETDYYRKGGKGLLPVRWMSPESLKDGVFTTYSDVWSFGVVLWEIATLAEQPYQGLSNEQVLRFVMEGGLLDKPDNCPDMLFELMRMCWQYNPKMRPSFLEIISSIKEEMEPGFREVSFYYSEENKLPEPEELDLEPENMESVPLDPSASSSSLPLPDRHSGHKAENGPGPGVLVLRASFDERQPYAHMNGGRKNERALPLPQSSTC
The experiment in a line: IGF1R cellular free kinase assay (pGT substrate phosphorylation). The format is biochemical. Conditions: for Competition with ATP (kinetic studies): elevation of ATP concentration. The protocol: The general protein-tyrosine kinase substrate, poly(Glu,Tyr) 4:1 (pGT), was coated onto a 96-well Maxisorp plates (Nunc) by adding 125 μl of 0.1 mg/ml pGT in PBS to each well. Plates were sealed and incubated for 16 hours at 37° C., washed once with TBST (10 mM Tris-HCl, pH 7.5, 50 mM NaCl, and 0.1% Triton X-100) and once with DDW, dried for 2-3 hours, and stored at 4° C. […] The plate was then washed with TBS with 0.2% Tween 20 (TBST) and blocked with 0.5% BSA in TBST. Mouse monoclonal anti-phosphotyrosine antibody, conjugated to Horse radish peroxidase (PT-66, 1:50000) was added to the plate. Following incubation for 45 min at room temperature, the plate was washed repeatedly with TBST. Detection was carried out with a color reagent, 2,2′-azido-bis-3-ethylbenzithiazoline-6-sulfonic acid, in citrate-phosphate buffer, pH 4.0, with 0.004% H2O2 for 10 min and monitored at 405 nm, all at room temperature. IC50 values of inhibitors were calculated using the REGRESSION program. The assay was optimized with respect to the amount of IGF-1R (partially purified from cells overexpressing IGF1R), reaction time, and ATP concentration. The signal was linear for 30 min in the range of IGF1R protein concentrations up to 35 ng/well.

For the next experiment, the system named is MDA MB 435. In words: Proliferation assay MDA MB 435. The class given is cell-based. Conditions: Homo sapiens, Breast, 72 hours. The protocol:
as §1, §2

The subject of a further experiment is A2780. The experiment in a line: Clonogenic assay A2780. The format is cell-based. Conditions: Homo sapiens, Ovarian. The protocol:
Various cancer cells (listed in table 1) were seeded at a very low concentration (19 cells/well in 96-well plates or 63 cells/well in 24-well plates) in growth medium. A day later medium was replaced with growth medium containing various concentrations of inhibitors in a final concentration of 0.1% DMSO. The inhibitor-containing medium was refreshed three times a week. Following approximately two weeks cells were fixed by adding Gluteraldehide (0.5% final concentration) for 10 min, washed three time with DDW, once with borate buffer 0.1M and stained for 1 hour with 1% Methylene Blue in borate buffer 0.1M. Access stain was washed with water, and following drying colonies were counted. Alternatively, stain was extracted by 0.1N HCl for 1 hour and absorbance at 620 nm was measured by ELISA Reader. The assays were performed in triplicates. The values in table 1 represent IC50 values derived from the dose-dependent growth curves obtained.

[1] abbreviates: [ATP] 2.5 μM, read-out: IC50, competition with ATP in cellular free kinase assay of IGF1R.
The mark [2] stands for this setting: [ATP] 5 μM, read-out: IC50, competition with ATP in cellular free kinase assay of IGF1R.
The mark [3] stands for this setting: [ATP] 10 μM, read-out: IC50, competition with ATP in cellular free kinase assay of IGF1R.
[4] abbreviates: [ATP] 20 μM, read-out: IC50, competition with ATP in cellular free kinase assay of IGF1R.
Where [5] appears, read: [ATP] 50 μM, read-out: IC50, competition with ATP in cellular free kinase assay of IGF1R.
The mark [6] stands for this setting: partially purified IGF1R, 20 μM ATP, read-out: IC50 values of IGF1R activity in cellular free kinase assay.

By IC50 is commonly meant the midpoint of a concentration-inhibition curve. On to `N#C/C(=C\c1cc(O)c(O)c(Br)c1)C(=S)NCc1cc(O)c(O)c(Br)c1` [Compound 6], for which the half-maximal inhibitory concentration (IC50) in the experiment on PC-10 was greater than 10000 nM; in the experiment with 1376, 2500 nM; in the experiment with U87MG, greater than 10000 nM; in the experiment on NCl-H1975 it was greater than 10000 nM; with SKOV-3 it was greater than 10000 nM; at IGF1R (setting [1]) it was 74 nM. Also, the 50% inhibitory concentration (IC50) is 56 nM at IGF1R (setting [2]); 92 nM on IGF1R (setting [3]); 55 nM on IGF1R (setting [4]); 98 nM at IGF1R (setting [5]); 98 nM on IGF1R (setting [6]); greater than 10000 nM in the experiment with MDA MB 435. Also, in the experiment on A2780, the IC50 was 100 nM. Also, the “Competition with ATP (kinetic studies)” value at IGF1R is recorded as “do not compete with ATP”.
Take `Oc1cc(CNC(=S)/C=C/c2cc(O)c(O)c(Br)c2)cc(O)c1O` [Compound 9]: the IC50 in the experiment on PC-10 was 3800 nM; with 1376 it was 1400 nM; in the experiment on U87MG it was 6600 nM; with NCl-H1975 it was 2700 nM; in the experiment with SKOV-3, 4300 nM; at IGF1R (setting [6]) it was 78 nM. Moreover, the figures for the concentration for half-maximal inhibition (IC50) with MDA MB 435 and in the experiment with A2780 were 1500 nM and 300 nM, respectively.
With `N#C/C(=C\c1cc(O)c(O)c(I)c1)C(=S)NCc1cc(O)c(O)c(O)c1` [Compound 8], the half-inhibitory concentration (IC50) in the experiment with PC-10 was 5800 nM; in the experiment with 1376, 800 nM; in the experiment with U87MG it was 2400 nM; in the experiment on NCl-H1975 it was 2300 nM; in the experiment on SKOV-3, 3500 nM; at IGF1R (setting [1]), 190 nM. Besides, the half-inhibitory concentration (IC50) on IGF1R (setting [2]) is 110 nM; at IGF1R (setting [3]) it was 100 nM; on IGF1R (setting [4]) it was 80 nM; at IGF1R (setting [5]), 100 nM; at IGF1R (setting [6]), 76 nM; in the experiment on MDA MB 435 it was 2100 nM. For the same compound, half-maximal inhibition in the experiment on A2780 (IC50) was put at 400 nM. Also, the “Competition with ATP (kinetic studies)” value at IGF1R was “do not compete with ATP”.
As for `N#C/C(=C\c1cc(O)c(O)c(Br)c1)C(=S)NCc1cc(O)c(O)c(O)c1` [Compound 7], the half-maximal inhibitory concentration (IC50) with PC-10 worked out at 5200 nM; in the experiment on 1376, 900 nM; with U87MG, 6900 nM; in the experiment on NCl-H1975, 2500 nM; in the experiment on SKOV-3 it was 5300 nM; on IGF1R (setting [1]) it was 190 nM. In addition, the IC50 came to 163 nM at IGF1R (setting [2]); 124 nM at IGF1R (setting [3]); 90 nM on IGF1R (setting [4]); 80 nM at IGF1R (setting [5]); 116 nM at IGF1R (setting [6]); 2700 nM in the experiment on MDA MB 435. This compound also had a 50% inhibitory concentration (IC50) in the experiment on A2780 of 400 nM. The “Competition with ATP (kinetic studies)” value at IGF1R is “do not compete with ATP”.
